Assays:
[1] = target: Clostripain (Hathewaya histolytica, UniProt P09870); conditions: Table 3; Z-Phe-Arg-AMC substrate; pH 7.6
Text: Clostripain. […] All data obtained was processed by pseudo-first order kinetics,

[2] = target: Gingipain K (Porphyromonas gingivalis, UniProt Q51817); assay: biochemical; format: biochemical; conditions: for k2 Gingipain K: Table 3, Suc-Ala-Phe-Lys-AMC substrate, pH 8.0; for kinact/KI: pH 8, read-out: kobs/[I] Gingipain K
[3] = system: Gingipain R; assay: Gingipain R inhibition; format: biochemical; conditions: Table 3
[4] = target: S. mansoni legumain (Schistosoma mansoni, UniProt P09841, N192C); assay: S. mansoni legumain (SmAE) inhibition assay; format: biochemical
Procedure: Studies with the propenoyl hydrazides using the schistosome legumain […], (Schistosoma mansoni asparaginyl endopeptidase) were also performed. […] The actual active site enzyme concentration is unknown. The lyophilized enzyme ([…]) was reconstituted in 1.5 mL 0.5 M sodium acetate, pH 4.5 containing 4 mM DTT, and left to stand at 37° C. for 3-4 hours to allow for auto-activation of the zymogen. In a black 96-well microtiter plate, 50 μL of activated enzyme was added to an equal volume of 0.1 M citrate-phosphate buffer pH 6.8 containing 4 mM DTT. Inhibitor stock solutions (20 mM) were prepared in DMSO. Serial dilutions (using water) of inhibitor were added (as 1 μL aliquots) to yield concentrations of between 2 and 0.00002 μM inhibitor. […] After incubating various inhibitor concentrations with enzyme, 100 μL of the same buffer containing 20 μM substrate (Cbz-Ala-Ala-Asn-AMC) was added to the wells and the reaction monitored at room temperature with linear kinetics up to 20 minutes. Inhibitors are tested in duplicate. A plot of the RFU/min versus the inhibitor concentration [μM] permitted calculation of an IC50 value and estimation of the kobs/[I].

[5] = target: T1, Caspase-3 (Homo sapiens, UniProt P42574); assay: Caspase-3 progress curve inhibition assay; conditions: second-order rate constant; Ac-DEVD-AMC substrate; Pipes buffer pH 7.2
T1 sequence (P42574 29-175 limits assumed): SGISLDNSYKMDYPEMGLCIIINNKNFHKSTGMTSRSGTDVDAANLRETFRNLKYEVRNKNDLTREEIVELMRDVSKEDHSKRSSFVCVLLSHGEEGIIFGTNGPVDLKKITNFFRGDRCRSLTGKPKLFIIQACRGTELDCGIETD
T1 sequence (P42574 176-277 limits assumed): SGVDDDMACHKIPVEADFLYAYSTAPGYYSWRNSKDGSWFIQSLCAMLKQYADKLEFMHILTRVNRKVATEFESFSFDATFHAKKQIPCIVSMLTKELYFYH

[6] = target: T2, Caspase-7 (Homo sapiens, UniProt P55210); assay: Caspase-7 progress curve inhibition assay; conditions: second-order rate constant; Ac-DEVD-AMC substrate; Pipes buffer pH 7.2
T2 sequence (P55210 24-198 limits assumed): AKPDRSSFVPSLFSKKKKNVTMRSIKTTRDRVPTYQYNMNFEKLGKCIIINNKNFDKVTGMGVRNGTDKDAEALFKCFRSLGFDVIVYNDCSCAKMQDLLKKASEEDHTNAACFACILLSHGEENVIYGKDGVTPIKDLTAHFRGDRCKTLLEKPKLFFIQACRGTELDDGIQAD
T2 sequence (P55210 207-303 limits assumed): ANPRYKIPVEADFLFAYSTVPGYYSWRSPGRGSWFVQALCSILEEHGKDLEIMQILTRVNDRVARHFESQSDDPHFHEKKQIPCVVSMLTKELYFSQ

[7] = target: T3, Caspase-2 (Homo sapiens, UniProt P42575); assay: Caspase-2 progress curve inhibition assay; conditions: second-order rate constant; Cbz-VDVAD-AFC substrate; Pipes buffer pH 7.2
T3 sequence (P42575 170-333 limits assumed): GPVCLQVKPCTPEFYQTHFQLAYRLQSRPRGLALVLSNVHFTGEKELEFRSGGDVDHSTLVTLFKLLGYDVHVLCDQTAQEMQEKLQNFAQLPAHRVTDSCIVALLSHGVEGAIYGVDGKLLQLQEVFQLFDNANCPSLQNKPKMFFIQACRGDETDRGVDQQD
T3 sequence (P42575 348-452 limits assumed): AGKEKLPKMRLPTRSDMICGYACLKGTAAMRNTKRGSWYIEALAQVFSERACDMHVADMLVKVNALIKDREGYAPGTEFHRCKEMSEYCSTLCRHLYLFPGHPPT

[8] = target: T4, Caspase-9 (Homo sapiens, UniProt P55211); assay: Caspase-9 progress curve inhibition assay; conditions: second-order rate constant; Ac-LEHD-AFC substrate; Hepes buffer pH 7.0 with 0.7 M sodium citrate
T4 sequence (P55211 1-315 limits assumed): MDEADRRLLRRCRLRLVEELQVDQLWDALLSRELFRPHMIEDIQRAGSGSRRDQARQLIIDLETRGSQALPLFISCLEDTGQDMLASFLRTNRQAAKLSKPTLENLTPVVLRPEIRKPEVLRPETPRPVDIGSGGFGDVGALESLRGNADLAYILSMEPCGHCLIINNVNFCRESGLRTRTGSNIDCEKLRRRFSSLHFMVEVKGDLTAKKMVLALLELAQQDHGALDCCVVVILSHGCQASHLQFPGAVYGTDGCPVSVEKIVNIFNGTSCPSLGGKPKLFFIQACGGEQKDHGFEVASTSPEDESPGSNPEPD
T4 sequence (P55211 331-416 limits assumed): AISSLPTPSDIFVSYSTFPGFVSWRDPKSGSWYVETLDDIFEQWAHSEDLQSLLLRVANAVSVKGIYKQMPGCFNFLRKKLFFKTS

[9] = target: Caspase-8 (Homo sapiens, UniProt Q14790); assay: Caspase-8 progress curve inhibition assay; conditions: second-order rate constant; Ac-DEVD-AMC substrate; Pipes buffer pH 7.2
[10] = target: T5, Caspase-10 (Homo sapiens, UniProt Q92851); assay: Caspase-10 progress curve inhibition assay; conditions: second-order rate constant; Ac-DEVD-AMC substrate; Hepes/PEG buffer pH 7.0
T5 sequence (Q92851 220-415 limits assumed): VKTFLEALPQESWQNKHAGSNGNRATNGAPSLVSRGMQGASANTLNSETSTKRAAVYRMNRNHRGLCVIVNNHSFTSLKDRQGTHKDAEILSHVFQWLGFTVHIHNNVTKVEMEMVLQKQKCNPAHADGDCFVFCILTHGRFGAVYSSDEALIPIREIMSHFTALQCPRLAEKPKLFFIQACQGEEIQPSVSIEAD
T5 sequence (Q92851 416-521 limits assumed): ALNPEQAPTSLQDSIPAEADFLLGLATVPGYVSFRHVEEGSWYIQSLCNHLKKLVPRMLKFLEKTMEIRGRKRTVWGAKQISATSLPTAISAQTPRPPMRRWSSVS
Procedure: Caspase-2, -3, -6, -7, -8, -9 and -10. Caspases-2, -3, -6, -7, -8, -9 and -10 were expressed in E. coli and purified in Guy Salvesen's laboratory at the Burnham Institute, La Jolla, Calif., according to the methods known in the art. Inhibition rates were determined by the progress curve method known in the art. This method is suitable for measuring irreversible inhibition rates with fast inhibitors, where the inhibitor, the substrate and the enzyme are incubated together and the rate of substrate hydrolysis is measured continuously. The rate of substrate hydrolysis in the presence of the inhibitor was monitored for 20 minutes. The progress curve of inhibition, where the product formation approaches an asymptote is described in the equation ln([P∞]−[P])=ln[P∞]−A[I]t where [P] and [P∞] are the product concentrations at t and t=∞ respectively, A is the apparent rate constant in the presence of the substrate. The apparent rate constants were determined from the slopes of plots of ln ([P∞]−[P]) versus time (t) in seconds as previously described, where A=slope/[I].
For competitive and irreversible inhibition, the apparent rate constant is converted to the second order rate constant k2 by taking into consideration the effect of the substrate concentration on the apparent rate constant. The second order rate constant is described as in the equation: k2=A*(1+[S]/KM)
Assay buffer is a 1:1 mixture of buffer (200 mM Hepes, 0.2% (w/v) CHAPS, PEG 20% (w/v)) and 20 mM DTT solution in H2O at pH 7.0). The enzyme was pre-activated for 10 min at 25° C. in the assay buffer.

[11] = target: T6, Caspase-6 (Homo sapiens, UniProt P55212); assay: Caspase-6 progress curve inhibition assay; conditions: second-order rate constant; Ac-DEVD-AMC substrate; Pipes buffer pH 7.2
T6 sequence (P55212 24-179 limits assumed): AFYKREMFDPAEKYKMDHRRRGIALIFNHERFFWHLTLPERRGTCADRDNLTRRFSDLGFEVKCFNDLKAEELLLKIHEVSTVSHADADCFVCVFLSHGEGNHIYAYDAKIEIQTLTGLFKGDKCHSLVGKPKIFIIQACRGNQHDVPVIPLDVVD
T6 sequence (P55212 194-293 limits assumed): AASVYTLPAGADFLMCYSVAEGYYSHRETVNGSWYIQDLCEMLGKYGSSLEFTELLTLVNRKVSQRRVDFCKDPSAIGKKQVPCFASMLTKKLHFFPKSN

Sequence of Clostripain (P09870 51-526): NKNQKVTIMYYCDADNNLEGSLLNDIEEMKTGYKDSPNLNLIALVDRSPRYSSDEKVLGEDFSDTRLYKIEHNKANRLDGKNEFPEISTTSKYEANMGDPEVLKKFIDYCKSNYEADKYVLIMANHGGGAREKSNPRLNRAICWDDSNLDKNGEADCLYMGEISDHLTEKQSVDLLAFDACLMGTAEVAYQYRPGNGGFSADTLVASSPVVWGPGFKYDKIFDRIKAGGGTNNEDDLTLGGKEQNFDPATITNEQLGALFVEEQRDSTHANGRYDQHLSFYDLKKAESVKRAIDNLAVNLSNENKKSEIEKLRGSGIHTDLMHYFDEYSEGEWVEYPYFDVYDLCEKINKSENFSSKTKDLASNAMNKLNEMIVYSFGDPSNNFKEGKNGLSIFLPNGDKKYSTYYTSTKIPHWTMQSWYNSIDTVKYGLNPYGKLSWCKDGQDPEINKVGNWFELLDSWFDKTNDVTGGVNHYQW
Sequence of Gingipain K (Q51817 229-1732 limits assumed): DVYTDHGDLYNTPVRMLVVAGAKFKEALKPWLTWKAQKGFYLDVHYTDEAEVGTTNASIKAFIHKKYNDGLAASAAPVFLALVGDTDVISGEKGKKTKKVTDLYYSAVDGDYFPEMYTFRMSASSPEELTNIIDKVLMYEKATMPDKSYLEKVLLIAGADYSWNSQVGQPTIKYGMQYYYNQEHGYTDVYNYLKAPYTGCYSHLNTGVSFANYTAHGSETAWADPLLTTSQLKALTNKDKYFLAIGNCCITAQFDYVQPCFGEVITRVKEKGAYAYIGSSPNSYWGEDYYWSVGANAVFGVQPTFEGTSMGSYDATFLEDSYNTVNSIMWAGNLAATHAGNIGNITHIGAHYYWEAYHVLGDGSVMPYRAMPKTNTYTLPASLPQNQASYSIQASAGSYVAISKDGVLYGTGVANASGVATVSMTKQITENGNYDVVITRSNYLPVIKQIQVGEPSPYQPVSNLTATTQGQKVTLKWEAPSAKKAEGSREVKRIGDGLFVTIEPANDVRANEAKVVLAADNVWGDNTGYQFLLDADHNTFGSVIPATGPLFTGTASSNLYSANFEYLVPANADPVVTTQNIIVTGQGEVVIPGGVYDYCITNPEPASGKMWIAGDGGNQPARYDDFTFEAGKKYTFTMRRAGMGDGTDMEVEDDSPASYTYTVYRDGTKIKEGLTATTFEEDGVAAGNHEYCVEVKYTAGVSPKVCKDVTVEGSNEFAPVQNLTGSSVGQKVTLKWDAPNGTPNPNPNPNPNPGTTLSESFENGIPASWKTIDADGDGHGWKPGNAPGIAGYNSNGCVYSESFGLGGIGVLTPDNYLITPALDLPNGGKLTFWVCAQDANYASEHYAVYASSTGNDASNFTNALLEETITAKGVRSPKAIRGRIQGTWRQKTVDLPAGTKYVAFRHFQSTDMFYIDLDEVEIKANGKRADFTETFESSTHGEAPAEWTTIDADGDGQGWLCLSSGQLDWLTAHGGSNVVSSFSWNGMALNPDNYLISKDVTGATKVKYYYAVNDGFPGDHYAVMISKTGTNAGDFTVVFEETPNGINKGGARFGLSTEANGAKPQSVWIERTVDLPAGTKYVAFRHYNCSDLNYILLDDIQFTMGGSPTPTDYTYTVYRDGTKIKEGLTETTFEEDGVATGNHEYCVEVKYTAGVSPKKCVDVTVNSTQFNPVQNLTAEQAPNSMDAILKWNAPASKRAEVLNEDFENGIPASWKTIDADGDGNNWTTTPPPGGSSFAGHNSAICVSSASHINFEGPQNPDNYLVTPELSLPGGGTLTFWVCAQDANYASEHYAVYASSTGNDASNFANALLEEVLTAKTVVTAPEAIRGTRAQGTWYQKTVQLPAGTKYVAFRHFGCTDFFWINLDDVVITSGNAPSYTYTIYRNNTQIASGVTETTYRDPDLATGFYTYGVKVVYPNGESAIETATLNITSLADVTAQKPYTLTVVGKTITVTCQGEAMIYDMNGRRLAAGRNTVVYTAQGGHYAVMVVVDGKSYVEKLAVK
Sequence of Caspase-8 (Q14790 217-374 limits assumed): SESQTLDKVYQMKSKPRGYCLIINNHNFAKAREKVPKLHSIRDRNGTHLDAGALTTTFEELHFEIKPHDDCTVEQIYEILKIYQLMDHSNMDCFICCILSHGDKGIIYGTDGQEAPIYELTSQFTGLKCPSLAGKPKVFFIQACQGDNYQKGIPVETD
Sequence of Caspase-8 (Q14790 385-479 limits assumed): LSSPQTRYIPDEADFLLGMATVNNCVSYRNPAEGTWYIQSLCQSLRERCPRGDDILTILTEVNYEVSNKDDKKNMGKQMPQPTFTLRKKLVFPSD
Sequence of S. mansoni legumain (P09841 32-291 N192C): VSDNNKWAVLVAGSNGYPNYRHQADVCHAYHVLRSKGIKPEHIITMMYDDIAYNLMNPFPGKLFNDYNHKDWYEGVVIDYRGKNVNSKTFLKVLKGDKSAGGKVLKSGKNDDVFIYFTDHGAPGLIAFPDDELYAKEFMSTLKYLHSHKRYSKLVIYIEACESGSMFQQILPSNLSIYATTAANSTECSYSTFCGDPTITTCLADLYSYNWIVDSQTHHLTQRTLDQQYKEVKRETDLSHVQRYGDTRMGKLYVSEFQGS

SMILES	k2 Clostripain [1]	k2 Gingipain K [2]	k2 Gingipain R [3]	further results
CC(C)CC(NC(=O)CCc1ccccc1)C(=O)NN(CCCCN)C(=O)C=CC(=O)N(C)Cc1cccc2ccccc12 (stereo not drawn)	639 M⁻¹ s⁻¹	975,000 M^−1s^−1	576 M⁻¹ s⁻¹	
CC(C)CC(NC(=O)CCc1ccccc1)C(=O)NN(CCCCN)C(=O)C=CC(=O)N(Cc1ccccc1)Cc1ccccc1 (stereo not drawn) [PhPr-Leu-ALys-CH═CH—CON(CH2Ph)2]	20,000 M^−1s^−1	2,130,000 M^−1s^−1	65 M⁻¹ s⁻¹	
CC(C)CC(NC(=O)CCc1ccccc1)C(=O)NN(CCCNC(=N)N)C(=O)C=CC(=O)N(Cc1ccccc1)Cc1ccccc1 (stereo not drawn) [PhPr-Leu-AArg-CH═CH—CON(CH2Ph)2]	474,000 M^−1s^−1		804,000 M^−1s^−1	
C[C@H](NC(=O)OCc1ccccc1)C(=O)N[C@@H](C)C(=O)NN(CC(N)=O)C(=O)/C=C/C(=O)N1CCc2ccccc21 [Cbz-Ala-Ala-AAsn-CH═CH—CO-indoline, N^2—(N-Benzyloxycarbonylalanylalanyl)-N^1-carbamoylmethyl-N^1-trans-(3-(2,3-dihydroindol-1-yloxo)propenoyl)hydrazine]				kinact/KI [2]: 1 M⁻¹ s⁻¹; IC50 [4]: 70 nM
CC(C)CC(NC(=O)CCc1ccccc1)C(=O)NN(CCCCN)C(=O)C=CC(=O)N(Cc1cccc2ccccc12)Cc1cccc2ccccc12 (stereo not drawn) [PhPr-Leu-ALys-CH═CH—CON(CH2-1-naphthyl2]	2,250 M^−1s^−1	1,890,000 M^−1s^−1	214 M⁻¹ s⁻¹	
CC(NC(=O)OCc1ccccc1)C(=O)NC(C)C(=O)NN(CC(N)=O)C(=O)C=CC(=O)N(C)c1ccc2ccccc2c1 (stereo not drawn)				kobs/[I] Gingipain K ([2]; Table 6, legumain specific inhibitors, NI = no inhibition after 20 minutes of incubation): 6 M⁻¹ s⁻¹
CC(C)C[C@H](NC(=O)CCc1ccccc1)C(=O)NN(CCCCN)C(=O)C=CC(=O)N(Cc1ccccc1)Cc1ccc(F)cc1 [PhPr-Leu-ALys-CH═CH—CON(Bzl)-p-CH2C6H4F]	13,800 M^−1s^−1	801,000 M^−1s^−1	75 M⁻¹ s⁻¹	
CCOC(=O)C=CC(=O)N(CCCN)NC(=O)C(C)NC(=O)CCc1ccccc1 (stereo not drawn) [PhPr-Ala-AOrn-CH═CH—COOEt]		632,000 M^−1s^−1	18 M⁻¹ s⁻¹	
CC(C)CC(NC(=O)CCc1ccccc1)C(=O)NN(CCCNC(=N)N)C(=O)C=CC(=O)NCc1ccccc1 (stereo not drawn) [PhPr-Leu-AArg-CH═CH—CONHCH2Ph]	287,000 M^−1s^−1		555,000 M^−1s^−1	
CC(C)C[C@H](NC(=O)CCc1ccccc1)C(=O)NN(CCCN)C(=O)C=CC(=O)NCc1ccccc1 [PhPr-Leu-AOrn-CH═CH—CONHCH2Ph]		24,700 M^−1s^−1	71 M⁻¹ s⁻¹	
CC(C)CC(NC(=O)CCc1ccccc1)C(=O)NN(CCCCN)C(=O)C=CC(=O)OCc1ccccc1 (stereo not drawn) [PhPr-Leu-ALys-CH═CH—COOCH2Ph]	20,500 M^−1s^−1		632 M⁻¹ s⁻¹	
CC(C)[C@H](NC(=O)[C@H](CCC(=O)O)NC(=O)[C@H](CC(=O)O)NC(=O)OCc1ccccc1)C(=O)NN(CC(=O)O)C(=O)/C=C/C(=O)N(C)CCc1ccccc1 (relative stereo) [N^2—(N-Benzyloxycarbonylaspartylglutamylvalyl)-N^1-carboxymethyl-N^1-trans-(3-phenethylmethylcarbamoylpropenoyl)hydrazine]				k2 Caspase-3 [5]: 1,180,000 M^−1s^−1; k2 Caspase-7 [6]: 172,000 M^−1s^−1; k2 Caspase-2 [7]: 320 M⁻¹ s⁻¹; k2 Caspase-9 [8]: 425 M⁻¹ s⁻¹; k2 Caspase-8 [9]: 31,900 M^−1s^−1; k2 Caspase-10 [10]: 9,570 M^−1s^−1; k2 Caspase-6 [11]: 4,000 M^−1s^−1
CC(C)C[C@H](NC(=O)OCc1ccccc1)C(=O)N[C@@H](CCC(=O)O)C(=O)N[C@H](C(=O)NN(CC(=O)O)C(=O)/C=C/C(=O)N(C)Cc1cccc2ccccc12)[C@@H](C)O (relative stereo) [N^2—(N-Benzyloxycarbonylleucylglutamylthreonyl)-N^1-carboxylmethyl-N^1-trans-(3-(methyl-1-naphthylmethyl)carbamoylpropenoyl)hydrazine]				k2 Caspase-3 [5]: 11,200 M^−1s^−1; k2 Caspase-7 [6]: 1,100 M^−1s^−1; k2 Caspase-2 [7]: 290 M⁻¹ s⁻¹; k2 Caspase-9 [8]: 5,030 M^−1s^−1; k2 Caspase-8 [9]: 179,000 M^−1s^−1; k2 Caspase-10 [10]: 13,600 M^−1s^−1; k2 Caspase-6 [11]: 21,700 M^−1s^−1
C[C@H](NC(=O)OCc1ccccc1)C(=O)N[C@@H](C)C(=O)NN(CC(N)=O)C(=O)/C=C/C(=O)N(C)Cc1ccccc1 [Cbz-Ala-Ala-AAsn-CH═CH—CON(CH3)Bzl, N^2—(N-Benzyloxycarbonylalanylalanyl)-N^1-carbamoylmethyl-N^1-trans-(3-benzylmethylcarbamoylpropenoyl)hydrazine]				kinact/KI [2]: 1 M⁻¹ s⁻¹
CCOC(=O)C=CC(=O)N(CCCNC(=N)N)NC(=O)C(CC(C)C)NC(=O)CCc1ccccc1 (stereo not drawn) [PhPr-Leu-AArg-CH═CH—COOEt]	69,600 M^−1s^−1	1,580 M^−1s^−1		

From patent US7482379B2, “Propenoyl hydrazides” (priority 2004, dated 2009)
